Results reported in ChEMBL document CHEMBL1201862, “PubChem BioAssay data set” (2004).
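Cultured in 96-well plates, cells were exposed to test compound for 48 hours across five concentrations. GI50 marks 50% less growth.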 Calls of active or inactive are those of the source. Cut-off read from the data, not from the text of the source: active = GI50 up to about 1.1 µM and inactive = higher.

Key:
Test in all cases: growth of human tumour cells (NCI), 48 h
786-0 = test system: 786-0
A498 = test system: A498
A549 = test system: A549
ACHN = test system: ACHN
BT-549 = test system: BT-549
CAKI-1 = test system: CAKI-1
CCRF-CEM = test system: CCRF-CEM
COLO 205 = test system: COLO 205
DU-145 = test system: DU-145
EKVX = test system: EKVX
HCC 2998 = test system: HCC 2998
HCT-116 = test system: HCT-116
HCT-15 = test system: HCT-15
HL-60 = test system: HL-60
HOP-62 = test system: HOP-62
HT-29 = test system: HT-29
Hs-578T = test system: Hs-578T
IGROV-1 = test system: IGROV-1
K562 = test system: K562
KM12 = test system: KM12
LOX IMVI = test system: LOX IMVI
M14 = test system: M14
MCF7 = test system: MCF7
MDA-MB-231 = test system: MDA-MB-231
MDA-MB-435 = test system: MDA-MB-435
MDA-N = test system: MDA-N
MOLT-4 = test system: MOLT-4
Malme-3M = test system: Malme-3M
NCI-H23 = test system: NCI-H23
NCI-H460 = test system: NCI-H460
NCI-H522 = test system: NCI-H522
NCI/ADR-RES = test system: NCI/ADR-RES
OVCAR-3 = test system: OVCAR-3
OVCAR-4 = test system: OVCAR-4
OVCAR-5 = test system: OVCAR-5
OVCAR-8 = test system: OVCAR-8
PC-3 = test system: PC-3
RPMI-8226 = test system: RPMI-8226
SF-268 = test system: SF-268
SF-295 = test system: SF-295
SF-539 = test system: SF-539
SK-MEL-28 = test system: SK-MEL-28
SK-MEL-2 = test system: SK-MEL-2
SK-MEL-5 = test system: SK-MEL-5
SK-OV-3 = test system: SK-OV-3
SN12C = test system: SN12C
SNB-19 = test system: SNB-19
SR = test system: SR
SW-620 = test system: SW-620
T47D = test system: T47D
TK-10 = test system: TK-10
U-251 = test system: U-251
UACC-257 = test system: UACC-257
UACC-62 = test system: UACC-62
UO-31 = test system: UO-31
NCI-H226 = test system: NCI-H226
SNB-75 = test system: SNB-75

Measured: GI50

COc1cc([C@@H]2c3cc4c(cc3[C@@H](Nc3ccc(Cl)cc3C(=O)c3ccccc3)[C@H]3COC(=O)[C@H]23)OCO4)cc(OC)c1OC
inactive: EKVX > 100 µM | OVCAR-4 > 100 µM | SK-MEL-2 2.34 µM | T47D > 100 µM | TK-10 > 100 µM | UO-31 1.19 µM
0.308 µM: HCT-15
active: 786-0 0.394 µM | A498 0.195 µM | A549 0.501 µM | ACHN 0.592 µM | BT-549 0.457 µM | CAKI-1 0.601 µM | CCRF-CEM 0.37 µM | COLO 205 0.416 µM | DU-145 0.428 µM | HCC 2998 0.205 µM | HCT-116 0.291 µM | HL-60 0.297 µM | HOP-62 0.64 µM | HT-29 0.307 µM | Hs-578T 0.287 µM | IGROV-1 0.417 µM | K562 0.358 µM | KM12 0.258 µM | LOX IMVI 0.303 µM | M14 0.414 µM | MCF7 0.395 µM | MDA-MB-231 0.586 µM | MDA-MB-435 0.242 µM | MDA-N 0.307 µM | MOLT-4 0.384 µM | Malme-3M 0.396 µM | NCI-H23 0.43 µM | NCI-H460 0.277 µM | NCI-H522 0.211 µM | NCI/ADR-RES 0.425 µM | OVCAR-3 0.324 µM | OVCAR-5 0.598 µM | OVCAR-8 0.359 µM | PC-3 0.342 µM | RPMI-8226 0.467 µM | SF-268 0.558 µM | SF-295 0.299 µM | SF-539 0.274 µM | SK-MEL-28 0.372 µM | SK-MEL-5 0.298 µM | SK-OV-3 0.641 µM | SN12C 0.518 µM | SNB-19 0.408 µM | SR 0.295 µM | SW-620 0.369 µM | U-251 0.241 µM | UACC-257 0.998 µM | UACC-62 0.401 µM

O=C1OC2C=CCC1C2 (stereo unspecified)
> 100 µM: HCT-15
inactive: 786-0 > 100 µM | A498 > 100 µM | A549 > 100 µM | ACHN > 100 µM | BT-549 > 100 µM | CAKI-1 > 100 µM | CCRF-CEM > 100 µM | COLO 205 > 100 µM | DU-145 > 100 µM | EKVX > 100 µM | HCC 2998 > 100 µM | HCT-116 > 100 µM | HL-60 > 100 µM | HOP-62 > 100 µM | HT-29 > 100 µM | Hs-578T > 100 µM | IGROV-1 > 100 µM | K562 > 100 µM | KM12 > 100 µM | LOX IMVI > 100 µM | M14 > 100 µM | MCF7 > 100 µM | MDA-MB-231 > 100 µM | MDA-MB-435 > 100 µM | MDA-N > 100 µM | MOLT-4 > 100 µM | Malme-3M > 100 µM | NCI-H226 > 100 µM | NCI-H23 > 100 µM | NCI-H460 > 100 µM | NCI-H522 > 100 µM | NCI/ADR-RES > 100 µM | OVCAR-3 > 100 µM | OVCAR-5 > 100 µM | OVCAR-8 > 100 µM | PC-3 > 100 µM | RPMI-8226 > 100 µM | SF-268 > 100 µM | SF-295 > 100 µM | SF-539 > 100 µM | SK-MEL-28 > 100 µM | SK-MEL-2 > 100 µM | SK-MEL-5 > 100 µM | SK-OV-3 > 100 µM | SN12C > 100 µM | SNB-19 > 100 µM | SNB-75 > 100 µM | SR > 100 µM | SW-620 > 100 µM | T47D > 100 µM | TK-10 > 100 µM | U-251 > 100 µM | UACC-257 > 100 µM | UACC-62 > 100 µM | UO-31 > 100 µM
